This note sets out measurements from ChEMBL document CHEMBL3507680, “University of Dundee, Gates Library screen for HepG2 cell viability”.

The structures appear in SMILES notation.

This data set in a line: Human HepG2 cell viability assay in 384 well format. The class given is toxicity, cell-based. As to conditions: HepG2 cells, read-out: Inhibition. The arrangement: dose 125 nL, time 70.5 hour; concentration not given beside the values.
With `CCN(CC)c1nc(O)cc(C(C)n2ncc3ccccc3c2=O)n1` (configuration not stated), the cytotoxicity at 70.5 h is -4.03%.
Then `CCC1=NC2(CCC(C(=O)Nc3ccc(F)cc3)CC2)C(=O)N1C` (configuration not stated), with -5.04%; and `CS(=O)(=O)CCNC(=O)Nc1ccc(Cl)cc1-n1cccc1`, with 23.7%.
For `Cc1nc(C)n(CC2CCCN(Cc3cccnc3)C2)n1` (configuration not stated) the value was -0.814%.
Then `COc1ccccc1CCNC(=O)CC1(Cn2cnnn2)CCCCC1`, with -20.4%; and `CC(C)OC(=O)[C@@H]1CCN(C(=O)c2ccccn2)[C@@H]1c1ccc(F)cc1`, with -6.08%; and `Cc1csc2ncnc(N3CCC(Cn4cc(C(C)(C)N)nn4)CC3)c12`, with 2.54%.
In the case of `CCc1ccccc1C(=O)N1CCN(S(C)(=O)=O)[C@@H](C)C1`, the cytotoxicity at 70.5 h was -9.19%.
For `CCNC(=O)N1CCC(Nc2nccc(NCC)n2)CC1` the value was -11.4%; for `CNC(=O)[C@H]1C[C@@H]2CN(C(=O)Nc3ccc(F)cc3)C[C@H]1O2`, -0.584%; for `Cc1nc(CSCCC(=O)NCc2cccnc2N(C)C)cs1`, -13.6%.
As for `Cc1noc(CCNC(=O)C2CSCN2C(=O)C2CCCC2)n1` (configuration not stated), the cytotoxicity at 70.5 h is -5.54%.
Then `CSc1cccc(CN2CCC(CCC(=O)NC3CC3)CC2)c1`, with -7.44%.
In the case of `Cc1nc(CN2CCN(C(=O)c3scnc3C)CC2)cs1`, the cytotoxicity at 70.5 h is -3.33%.
With `COC(=O)CCNC(=O)c1cc(Br)c2c(c1)OCCO2`, the cytotoxicity at 70.5 h is -10.5%.
Then `CC(C)(CN1C[C@H](Nc2ncccn2)[C@@H](C2CC2)C1)N1CCOCC1`, with -11.6%; and `Cc1cccc(CNC(=O)Nc2ccc3c(c2)CCCC(=O)N3)c1`, with -1.4%; and `COc1ccc(OC)c(NC(=O)c2cc3c([nH]c2=O)CCCC3=O)c1`, with -4.78%.
For `c1cc(-c2noc(CN3CCc4c(ncn4C4CC4)C3)n2)cs1` the value was -20.1%; for `Cc1cc(NS(=O)(=O)c2cccs2)ccc1-n1cccc1C(=O)O`, -1.78%; for `Cc1ccccc1C(=O)NC[C@@H]1CCN(C(=O)c2cscn2)C[C@H]1O`, 18.9%.
For `O=C(CS(=O)(=O)Cc1cccc(Br)c1)Nc1cn[nH]c1` the value was -2.81%; for `COc1ccc2c(c1)CN(C)C(=O)CCN2CC(O)C(C)(C)C` (configuration not stated), -6.98%; for `COCCN(c1ccncc1)S(=O)(=O)c1cc(C)cc(F)c1`, -10.7%.
For the compound `CC(C)N1CC(C(=O)N2CCN(CCn3cccc3)CC2)CC1=O` (configuration not stated), the cytotoxicity at 70.5 h is -3.03%.
For `CCc1noc(CCCC(=O)N2CCCC(c3ccn[nH]3)C2)n1` (configuration not stated) the value was -5.32%.
For `O=C(NCC1(O)CCC1)NC(c1cc(F)ccc1F)C1CC1` (configuration not stated), the cytotoxicity at 70.5 h is -6.17%.
Then `Fc1ccc(-c2nc(CNCCn3cccn3)cs2)cc1`, with 0.385%; and `CC(C)C(=O)N1CCC[C@]2(C(=O)N(C)C)CN(c3ccccn3)C[C@@H]2C1`, with 11.4%.
As for `CN(C)CCNc1cc(-c2ncccc2Cl)c2cc[nH]c2n1`, the cytotoxicity at 70.5 h was found to be 1.89%.
Then `O=C(COc1ccccc1)N(Cc1ccncc1)C1CC1`, with -8.79%; and `CC(C)OCCC(=O)N(C)c1ccc(F)c(Cl)c1`, with -4.66%; and `CN(Cc1nnc2n1CCC2)C(=O)c1ccc2c(c1)OCO2`, with -11.9%.
For `O=C(Cc1cccc(F)c1)N1CCCCC1c1ccn2ccnc2n1` (configuration not stated), the cytotoxicity at 70.5 h worked out at 29.6%.
For `COc1ccc(OCc2cc(C(=O)N3CCSCC3)n[nH]2)c(Cl)c1` the value was -5.04%; for `CC(=O)Nc1ccc(Oc2ccc(CN3CCCC3)cc2F)cc1`, -3.88%.
For `CNC(=O)[C@@H]1CCO[C@@H]2CCN(CCc3ccccc3)C[C@H]21` the value was -3.11%.
For `Clc1ccccc1Cc1noc(CN2CCCC(CN3CCCC3)C2)n1` (configuration not stated) the value was -3.9%; for `Cc1cc(C)nc(C2CCCN2C(=O)c2coc(C)n2)n1` (configuration not stated), 23%; for `Cc1cnn(CCNCc2ccccc2OCc2ccccn2)c1`, -0.163%.
`COc1ccc(CN[C@H]2CC[C@@]3(CCC(=O)N3)CC2)cc1`: the cytotoxicity at 70.5 h was -6.23%.
For `CNC(=O)c1cn[nH]c1C1(C)CCCN(Cc2ccccn2)C1` (configuration not stated), the cytotoxicity at 70.5 h was -7.3%.
As to `CN(C)C(=O)N1CCn2cc(CNC(=O)CC3CC3)nc2C1`, the cytotoxicity at 70.5 h is -0.867%.
Then `Cc1cc(CN2CCCC2c2noc(C3CC3)n2)c2ccccc2n1` (configuration not stated), with 51.7%.
Regarding `CCCN1CC[C@@H]2OC[C@H](C(=O)Nc3cccnc3)C[C@@H]2C1`, the cytotoxicity at 70.5 h was 2.64%.
Then `Cc1ccccc1CC1(CO)CCCN(c2ncncc2C(C)C)C1` (configuration not stated), with 5.34%.
For `c1cc(N2CCSCC2)ccc1CNc1cncc2nnnn12` the value was -12.4%; for `CC[C@@H]1N(Cc2ccsc2)CCC[C@]12CCC(=O)N2CCOC`, -17.5%; for `CC(Oc1cccc(Cl)c1)C(=O)Nc1cnn(CCN(C)C)c1` (configuration not stated), 23.7%.
Then `COc1cc(CNC(=O)N(Cc2ccc(F)cc2F)C2CC2)ccn1`, with -12.9%.
Consider `CC(=O)NCC1CCN(C(=O)c2csc(-c3ccc(C)cc3C)n2)CC1`, for which the cytotoxicity at 70.5 h was -10.6%.
For `O=C1CN([C@@H]2CC[C@@H](NS(=O)(=O)c3ccc(F)cc3)[C@H]2O)CCN1` the value was 4.31%.
Then `CC(C)N1CCC(NCc2cccnc2N(C)Cc2ccccc2)CC1`, with -5.38%.
As to `Cc1cnc(CN(C)C2CCN(Cc3sc(C)nc3C)C2)o1` (configuration not stated), the cytotoxicity at 70.5 h came out at 29.7%.
Regarding `Cc1c(C)n(-c2ccccn2)c2nc3c(c(N)c12)CCCC3`, the cytotoxicity at 70.5 h was -9.17%.
On to `Cc1cnn(CCNCc2nnc(Cc3ccccc3)o2)c1`, for which the cytotoxicity at 70.5 h is -1.13%.
Then `CCc1nc(CN2CCCN(C(=O)c3cnc(C)cn3)CC2)cs1`, with 1.16%; and `O=C1CCC(=O)N1CCn1nnc(-c2ccc(Br)cc2)n1`, with -2.01%; and `Cc1cc(C)c2nc(CN3CCC(N4CCOC4=O)CC3)cc(O)c2c1`, with 2.37%.
As for `Cc1ccc(C(=O)N2CCc3ncnc(-c4cnn(C)c4)c3CC2)o1`, the cytotoxicity at 70.5 h was -7.08%.
Take `O=C(c1cncnc1)N1CCCC(c2nccs2)C1` (configuration not stated): the cytotoxicity at 70.5 h is -3.47%.
For `O=C(O)C1CCCCN1C(=O)c1cccc(C(F)(F)F)c1` (configuration not stated) the value was -9.81%.
Then `CCC(CC)C(=O)N1CCN(Cc2cc(-c3ccncc3)nn2C)CC1`, with 1.08%; and `CCCn1cc(S(=O)(=O)N(C)Cc2nonc2C)c(C)n1`, with -3.71%.
Consider `COc1cc(C)c(C2CC(=O)NCc3nc4sccn4c32)cc1C` (configuration not stated), for which the cytotoxicity at 70.5 h was -18%.
For `N#Cc1cccc(NS(=O)(=O)c2ccc(C(=O)O)cc2F)c1` the value was -13.8%; for `c1ccc(-c2noc(CN3CCCC(Cn4cncn4)C3)n2)nc1` (configuration not stated), -11.5%.
For `CCc1nc(CNC2CCN(c3ccc(OC)cc3)CC2)cs1` the value was -5.26%; for `CCNC(=O)NC(=O)CNC(C)(C)c1ccc2c(c1)OCO2`, -4.4%; for `CCCN1CCN(C(=O)c2ccnc(N)c2)[C@H]2CS(=O)(=O)C[C@H]21`, 2.28%.
For the compound `COc1cc(CNc2nc(C3CC3)no2)cc(OC)c1OC`, the cytotoxicity at 70.5 h worked out at 6.45%.
For `O=C(c1nn[nH]c1Nc1cccc(Cl)c1)N1CCSCC1` the value was 26.2%; for `CCC(C)NC(=O)CCNC(=O)c1c[nH]cc1-c1cccc(OC)c1` (configuration not stated), 2.46%; for `COc1cc2c(cc1OC)CCN(C(=O)Cn1nc(C)cc1C)CC2`, 2.01%.
Then `O=C(Nc1cccnc1N1CCCC1)C1CCS(=O)(=O)C1` (configuration not stated), with 1.04%.
`CN(C)C(=O)CCS(=O)(=O)Cc1cc(Cl)c2c(c1)OCCO2`: the cytotoxicity at 70.5 h was -6.03%.
Then `CCCNC(=O)NC(=O)CNC(C)(C)c1ccc2c(c1)OCCO2`, with -2.49%.
In the case of `CN1C(=N)NC(=O)/C1=C\c1ccc(-c2ccc(F)cc2)o1`, the cytotoxicity at 70.5 h came to 28.8%.
For `Cn1ncc2c1C(COCC1CC1)CN(Cc1ccco1)C2` (configuration not stated) the value was 4.98%.
For `Cc1cc(C(=O)O)cc(S(=O)(=O)Nc2ccc3c(c2)OCO3)c1C` the value was 20.2%.
Then `CCOC(=O)CC(C)Nc1nc(C2CCCC2)nc2c1cnn2C` (configuration not stated), with -12.8%.
On to `CC(C)(C)NC(=O)COc1ccc(CNCc2ccccn2)cc1`, for which the cytotoxicity at 70.5 h came out at 25.3%.
For `CN(C)CCN1CC(C(=O)NCc2ccc(C#N)cc2)CC1=O` (configuration not stated) the value was -1.01%.
Then `CCN1CCOC(CNc2nccc(OC)n2)C1` (configuration not stated), with -5.64%; and `COc1cc2ncn(Cc3ncc[nH]3)c(=O)c2cc1OC`, with -23.4%.
For `CCn1c(CN2CCCN(C(=O)OC)CC2)nc2c(F)cccc21`, the cytotoxicity at 70.5 h was determined as 18.8%.
For `COCCN(Cc1cccnc1)S(=O)(=O)c1cc(C)ccc1F` the value was -5.06%.
Regarding `N#Cc1cccc(C(=O)N2CCCC(C(=O)CCc3ccccc3)C2)c1` (configuration not stated), the cytotoxicity at 70.5 h was -5.64%.
For `Cc1nccn1CCCN1CCCC(c2nccn2C)C1` (configuration not stated), the cytotoxicity at 70.5 h came to 21.3%.
For `Cc1cc(C(=O)N2CCC3(C2)CN(c2ccsc2)C(=O)CN3C)[nH]n1` (configuration not stated) the value was -7.61%; for `CN(CC(O)C1CC1)C(=O)c1ccc(-c2nc(C3CC3)n[nH]2)cc1` (configuration not stated), -7.71%; for `Cc1oc(-c2ccc(F)cc2)nc1CN1CCOCS1(=O)=O`, -12.2%.
For `O=C(Nc1ccc(F)cc1)N1C[C@H]2C[C@H](C(=O)N3CCOCC3)[C@@H](C1)O2` the value was -1.46%; for `Cc1cc(C(F)(F)F)n2nc(C3CCN(S(=O)(=O)N(C)C)CC3)cc2n1`, -0.288%; for `CCOc1ccc(C(=O)Nc2c(C)nc3ccc(Cl)cn3c2=O)cc1`, -3.81%.
For `CS(=O)(=O)N1CCCC12CCCN(C(=O)c1ccc3c(c1)OCO3)C2` (configuration not stated) the value was -7.38%; for `COc1ccccc1C1(CNc2cn[nH]c(=O)c2Cl)CC1`, -12.7%.
